Test results taken from publication PMC10599030, “[1, 8]-Naphthyridine derivatives as dual inhibitor of alkaline phosphatase and carbonic anhydrase” (BMC Chemistry, 2023).
Where “and” joins values, the source holds several entries; their conditions need not be identical. Equal entries are not always repeated. Where two headings read alike, the source gives them in different places.

What was measured:
Format in all cases: biochemical
b-TNAP = biological target: T1, b-TNAP (Bos taurus, UniProt P09487); test: Alkaline phosphatase inhibition assay (b-TNAP, p-NPP substrate); details: for inhibition at 100 µM: read-out: b-TNAP % Inhibition; for IC50: n = 3, read-out: b-TNAP IC50 (µM) ± SEM
T1 sequence (P09487 18-524): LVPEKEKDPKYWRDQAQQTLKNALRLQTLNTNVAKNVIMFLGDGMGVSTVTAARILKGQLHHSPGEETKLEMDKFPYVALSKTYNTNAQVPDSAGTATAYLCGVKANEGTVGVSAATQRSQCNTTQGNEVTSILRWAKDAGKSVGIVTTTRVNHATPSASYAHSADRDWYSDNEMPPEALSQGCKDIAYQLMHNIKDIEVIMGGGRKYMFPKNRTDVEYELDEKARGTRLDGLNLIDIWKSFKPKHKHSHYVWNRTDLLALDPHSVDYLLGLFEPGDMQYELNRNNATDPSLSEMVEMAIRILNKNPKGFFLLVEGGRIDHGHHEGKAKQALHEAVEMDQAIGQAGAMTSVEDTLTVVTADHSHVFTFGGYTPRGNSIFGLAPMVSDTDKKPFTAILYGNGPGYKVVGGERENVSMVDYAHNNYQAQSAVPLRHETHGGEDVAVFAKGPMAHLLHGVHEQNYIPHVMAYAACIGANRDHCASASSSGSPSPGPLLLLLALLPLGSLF
Protocol: The assay was based on previously reported protocol. […] All the solutions were made in assay buffer comprising Tris-HCl (50 mM), ZnCl2 (0.1 mM) and MgCl2 (5 mM) and pH was adjusted at 9.5. […] Assay was started by adding 70 μL of assay buffer in each well of 96 wells flat bottom clear microplate, followed by adding 10 μL of test compound and 10 μL of working enzyme solution. The reaction mixture was incubated at 37 °C for 10 min and absorbance was measured by a microplate reader (Bio-[…], Instruments, Inc. USA) at 405 nm. The reaction was started by adding 10 μL of 5 mM p-NPP (para-nitrophenolphosphate) as substrate. […] Following formula was used to calculate the percentage of inhibition of test compounds.

h-CAXII = biological target: T2, h-CAXII (Homo sapiens, UniProt O43570); test: Inhibition assay for carbonic anhydrase XII; details: for IC50: n = 3, read-out: CAXII IC50 (µM) ± SEM
T2 construct: His (N); host or cells: HEK 293 T
T2 sequence (O43570 25-354): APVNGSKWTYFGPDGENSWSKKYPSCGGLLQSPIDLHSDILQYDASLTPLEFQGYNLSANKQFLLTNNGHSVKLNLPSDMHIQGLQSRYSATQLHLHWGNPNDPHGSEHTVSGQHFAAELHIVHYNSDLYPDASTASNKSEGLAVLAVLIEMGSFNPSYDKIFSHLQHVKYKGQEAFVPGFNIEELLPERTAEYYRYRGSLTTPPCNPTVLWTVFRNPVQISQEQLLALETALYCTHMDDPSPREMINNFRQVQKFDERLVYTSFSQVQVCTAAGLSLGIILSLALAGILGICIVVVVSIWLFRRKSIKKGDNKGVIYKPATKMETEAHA
Protocol: (§1) Expression of enzyme protein was done according to previously reported protocol. Briefly, transfection was carried out for CA-II, IX, and XII by using vectors pCMV3-N-His, pCMV3-SP-HIS-ORF, and pCMV3-N-His obtained from Sino Biologicals Inc., respectively. […] When cells gained about 80–90% confluency, they were washed twice with PBS and transfected with 0.2 µg plasmid solution. Cells were incubated for 6 h in 5% CO2 incubator, followed by the addition of fresh growth media. Cells were again incubated for 24 h. Hygromycin B (0.2 mg/mL) was used as a selection antibiotic for transfected cells. Cells were harvested after five days and lysed. Then desired proteins were purified via Ni–NTA resin using imidazole as affinity. SDS PAGE was carried out to confirm the molecular weight of purified protein.
(§2) The CA isozymes inhibition assay was performed according to the reported method after some modifications. Assay buffer was prepared that contained 50 mM tris-sulfate, 0.1 mM ZnCl2, and pH was adjusted at 7.6. Initially, 60 µL assay buffer was added in each well of 96 wells plate, 10 µL test compound (final concentration 100 µM), and followed by the addition of 10 µL working enzyme solution. The reaction mixture was incubated for 10 min at 37 °C. […] Then 20 µL of the substrate (6 mM) was added to the reaction mixture to initiate the reaction. The reaction mixture was incubated at 37 °C for 30 min, and absorbance was measured again. […] Results were reported as the mean of triplicate experiments (± SEM). The % inhibition was calculated by following the formula. Inhibition%=100-ODtestcompound/ODcontrol×100

h-CAIX = biological target: T3, h-CAIX (Homo sapiens, UniProt Q16790); test: Inhibition assay for carbonic anhydrase IX; details: for IC50: n = 3, read-out: CAIX IC50 (µM) ± SEM
T3 construct: His (N); host or cells: HEK 293 T
Protocol: as §1, §2

h-CAII = biological target: T4, h-CAII (Homo sapiens, UniProt P00918); test: Inhibition assay for carbonic anhydrase II; details: for IC50: n = 3, read-out: CAII IC50 (µM) ± SEM
T4 construct: His (N); host or cells: HEK 293 T
Protocol: as §1, §2

c-IAP = c-IAP (Bos taurus, UniProt P19111); test: Alkaline phosphatase inhibition assay (c-IAP, p-NPP substrate)
c-IAP, sequence (P19111 20-506): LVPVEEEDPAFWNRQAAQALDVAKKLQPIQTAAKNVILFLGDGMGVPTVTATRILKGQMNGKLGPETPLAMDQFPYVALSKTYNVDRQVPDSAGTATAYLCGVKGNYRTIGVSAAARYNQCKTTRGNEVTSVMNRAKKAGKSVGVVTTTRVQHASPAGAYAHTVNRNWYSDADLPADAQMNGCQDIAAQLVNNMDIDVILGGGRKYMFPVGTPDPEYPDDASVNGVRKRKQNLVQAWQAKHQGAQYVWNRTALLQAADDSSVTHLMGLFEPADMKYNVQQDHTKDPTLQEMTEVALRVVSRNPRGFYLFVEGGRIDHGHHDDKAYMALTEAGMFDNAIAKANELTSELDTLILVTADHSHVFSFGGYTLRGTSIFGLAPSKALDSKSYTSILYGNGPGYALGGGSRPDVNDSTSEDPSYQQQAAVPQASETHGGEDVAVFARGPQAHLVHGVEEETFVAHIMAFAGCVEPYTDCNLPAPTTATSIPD
Protocol: [1, 8]-Naphthyridine derivatives were screened for inhibitor potential towards b-TNAP and c-IAP. The assay was based on previously reported protocol. […]. All the solutions were made in assay buffer comprising Tris–HCl (50 mM), ZnCl2 (0.1 mM) and MgCl2 (5 mM) and pH was adjusted at 9.5. Working solutions of both enzymes were prepared in assay buffer containing 50% of glycerol. The final concentration of b-TNAP and c-IAP were kept at 0.025 U/mL and 0.05 U/mL, respectively. Assay was started by adding 70 µL of assay buffer in each well of 96 wells flat bottom clear microplate, followed by adding 10 µL of test compound and 10 µL of working enzyme solution. The reaction mixture was incubated at 37 °C for 10 min and absorbance was measured by a microplate reader (Bio-TekELx 800™, Instruments, Inc. USA) at 405 nm. The reaction was started by adding 10 µL of 5 mM p-NPP (para-nitrophenolphosphate) as substrate. […]. Following formula was used to calculate the percentage of inhibition of test compounds. Inhibition%=100-ODtestcompound/ODcontrol×100

[1] = 100 µM final concentration of compound

| SMILES | IC50 (h-CAXII) | IC50 (h-CAIX) | IC50 (b-TNAP) | IC50 (h-CAII) | further results |
| --- | --- | --- | --- | --- | --- |
| Cc1ccc(-c2cc3cccnc3n3cccc23)cc1 [Compound 1d] | 2.4 ± 0.98 µM | 1.36 ± 0.48 µM | – | – | inhibition at 100 µM (b-TNAP): < 30%; Activity against CA-XII in words (h-CAXII): marked activity; Activity against CA-IX in words (h-CAIX): marked activity; Activity against CA-II in words (h-CAII): inactive |
| N[C@@H](Cc1ccccc1)C(=O)O [L-phenyl alanine, reference compound] | – | – | – | – | IC50 (c-IAP; n = 3, read-out: c-IAP IC50 (µM) ± SEM): 80.21 ± 0.001 µM |
| c1cnc2c(c1)cc(-c1ccsc1)c1cccn12 [Compound 1k] | 1.8 ± 0.42 µM | – | 0.36 ± 0.07 µM | 1.63 ± 0.55 µM | CAIX % inhibition (h-CAIX; [1]): 35.1%; inhibition at 100 µM (h-CAIX; [1]): < 50% |
| Fc1ccccc1-c1cc2cccnc2n2cccc12 [Compound 1j] | 0.51 ± 0.26 µM | 1.65 ± 0.98 µM | – | 2.14 ± 0.3 µM | Activity against b-TNAP in words (b-TNAP): loss of activity; inhibition at 100 µM (b-TNAP): < 20% |
| Fc1ccc(-c2cc3cccnc3n3cccc23)cc1 [Compound 1c] | 0.96 ± 0.28 µM | 0.7 ± 0.27 µM | 1.01 ± 0.31 µM | 0.9 ± 0.5 µM | – |
| CCCCc1cc2cccnc2n2cccc12 [Compound 1e] | 0.51 ± 0.41 µM | 1.61 ± 0.26 µM | 0.32 ± 0.11 µM | 0.44 ± 0.19 µM | – |
| c1ccc([C@H]2CN3CCSC3=N2)cc1 [Levamisole, reference compound] | – | – | 19.21 ± 0.001 µM | – | – |
| Cc1cccc(-c2cc3cccnc3n3cccc23)c1 [Compound 1i] | 0.46 ± 0.12 µM | 0.87 ± 0.51 µM | – | – | Activity against b-TNAP in words (b-TNAP): loss of activity; inhibition at 100 µM (b-TNAP): < 30%; Activity against CA-XII in words (h-CAXII): significant activity; Activity against CA-IX in words (h-CAIX): significant activity; Activity against CA-II in words (h-CAII): inactive |
| CC(C)(C)c1ccc(-c2cc3cccnc3n3cccc23)cc1 [Compound 1b] | 1.51 ± 0.72 µM | – | 0.122 µM and 0.12 µM | 1.26 ± 0.44 µM | Times more potent as compared to Levamisole (standard inhibitor of TNAP) (b-TNAP; ratio of IC50 values): 160 times |
| COc1ccc(-c2cc3cccnc3n3cccc23)cc1 [Compound 1f] | 4.3 ± 2.2 µM | 0.99 ± 0.12 µM | 0.14 ± 0.12 µM | – | – |
| c1cnc2c(c1)cc(C1CCCCC1)c1cccn12 [Compound 1l] | 1.5 ± 0.31 µM | 3.2 ± 1.52 µM | 0.24 ± 0.06 µM | 1.99 ± 0.71 µM | – |
| COc1ccc(-c2cc3cccnc3n3cccc23)c(C)c1 [Compound 1h] | 0.8 ± 0.69 µM | 0.74 ± 0.51 µM | – | 1.46 ± 0.96 µM | Activity against c-IAP in words (c-IAP): complete loss of activity; inhibition at 100 µM (c-IAP; read-out: c-IAP % Inhibition): 37%; Activity against b-TNAP in words (b-TNAP): loss of activity; inhibition at 100 µM (b-TNAP; [1]): 33% |
| COc1cccc(-c2cc3cccnc3n3cccc23)c1 [Compound 1g] | 3.05 ± 0.92 µM | 0.11 ± 0.03 µM | 0.63 ± 0.47 µM | 0.1 ± 0.04 µM | – |
| c1ccc(-c2cc3cccnc3n3cccc23)cc1 [Compound 1a] | 0.32 ± 0.07 µM | 0.86 ± 0.47 µM | 0.38 ± 0.09 µM | 1.28 ± 0.16 µM | – |
